The values that follow come from patent publication US20040191169A1, “Methods of protection from toxicity of alpha emitting elements during radioimmunotherapy” (priority 2003, published 2004).

One data set addresses CD33 antigen (Homo sapiens, UniProt P20138). Particulars: on the order of; cited from earlier work.
The nature of data set [1]: Diuretic therapy, alone or combined with DMPS: renal ^221Fr and ^213Bi activity after ^225Ac labeled HuM195 injection. The data set is classed as in vivo, mice. The note with it: diuretic alone i.p.; 24 hours post-injection. How it is done:
(§1) The mice were anesthetized and then injected intravenously in the retro-orbital venous plexus with 0.5 μCi of either ^225Ac labeled HuM195 for chelation, diuresis and competitive metal blockade experiments or of ^225Ac labeled SJ25C1 for tumor burden experiments. The injected volume was 100 μl. In order to detect adequate numbers of disintegrations in tissues by use of the gamma-counter, the injected doses of ^225Ac nanogenerator, i.e., ˜30 μCi/kg, are much higher than the doses for human clinical trials with these adjuvants.
Mice were randomized to furosemide treatment, chlorthiazide (CTZ) treatment or no treatment(control)groups (5 animals per group). Furosemide and CTZ were administered intraperitoneally (i.p.). The loading doses of furosemide and CTZ were 250 mg/kg and 750 mg/kg respectively, administered one hour before ^225Ac nanogeneratorinjection. The maintenance doses were 100 mg/kg and 300 mg/kg, respectively, administered 12 hours and 24 hours after the loading dose. The controls were injected with an equal volume of saline (vehicle).
Alternatively, mice received DMPS (1.2 mg/ml in drinking water) and either furosemide or CTZ i.p using the same dose schedule as above. The controls received regular drinking water and were injected with an equal volume of saline. The animals were sacrificed at 24 hours post-injection with the labeled antibody and the mean activity (% ID/g) of ^225Ac, ^221Fr and ^213Bi in blood and kidneys was calculated for each experimental group, as described above.

The nature of data set [2]: Free metal scavenging with DMPS or DMSA: tissue ^213Bi and ^221Fr activity after ^225Ac labeled HuM195 injection. The data set is classed as in vivo, mice. The note with it: for renal ^213Bi activity: chelator in drinking water, mean (SE); for renal ^221Fr activity versus untreated controls: at either 6 hours or 72 hours post-injection. How it is done:
as §1
Animals received either 2,3-dimercapto-1-propanesulfonic acid (DMPS; Sigma, St. Louis, Mo.) or meso-2,3-dimercaptosuccinic acid (DMSA; Sigma, St. Louis, Mo.) in drinking water (1.2 mg/ml and 1.5 mg/ml, respectively), starting one day before injection with ^225Ac nanogenerator and continued until the animals were sacrificed. The control animals received regular drinking water. Animals (n=5 per group) were sacrificed at 6 and 72 hours post-injection by carbon-dioxide asphyxiation.
Samples of blood taken by cardiac puncture, of kidneys, of liver and of small intestine were removed. The organs were washed in distilled water, blotted dry on gauze, weighed, and the activity of ^221Fr (185-250 keV window) and ^213Bi (360-480 keV window) was measured using a gamma counter (COBRA II, Packard Instrument Company, Meriden, Conn.). Samples of the injectate (100 μl) were used as decay correction standards. Adjustment was made for the small percentage of bismuth activity that counted in the francium activity window. Percentage injected dose of ^225Ac, ^221Fr and ^213Bi per gram of tissue weight (% ID/g) was calculated for each animal at the time of sacrifice, using the equation (78):
A2(0)=[A2−A2(eq)·(e^−λ2t−e^−λ1t)]·e^λ2t
where λ1 and λ2 are the decay constants of Ac and Bi, respectively. The mean % ID/g was determined for each experimental group.

The nature of data set [3]: Tumor burden experiment: ^213Bi activity in kidneys and femurs after ^225Ac labeled SJ25C1, disseminated human Daudi lymphoma. It counts as in vivo, SCID mice. As for the experimental part:
Disseminated human Daudi lymphoma (84) treated with ^225Ac labeled anti-CD19, was used as the model system. SCID mice, 10-12 weeks old, were randomized to “low tumor burden” or 7 days growth of tumor, “high tumor burden” or 30 days growth of tumor or “high tumor burden+DMPS” group or 30 days growth of tumor and treated with 1.2 mg/ml DMPS in drinking water, starting one day before injection with ^225Ac nanogenerator. All mice were injected intravenously with 5×10^6 Daudi lymphoma cells in 0.1 ml phosphate buffered saline (PBS). The “low burden” animals were injected with the tumor cells 23 days after the “high burden” ones. The animals were checked daily for the onset of hind-leg paralysis. 30 days after injection of tumor cells in the “high burden” animals and 7 days after injection for the “low burden” group, all animals were injected retro-orbitally with 0.5 μCi of ^225Ac labeled SJ25C1 in 100 μl.
The animals (5 per group) were sacrificed at 24 hours post-injection and the mean ^225Ac, ^221Fr and ^213Bi activity (% ID/g) in blood, femurs and kidneys was calculated for each experimental group. The % of human-CD20 positive cells in the femoral bone marrow was estimated in one representative animal from the “high and low burden” groups by flow cytometric staining with phycoerythrin (PE)-conjugated anti-human CD20 (BD, San Jose, Calif.) and compared to that of a non tumor-bearing mouse of the same strain.

The nature of data set [4]: In vivo biodistribution of [Ac]Hum195 at 24 hours in DMPS-treated and untreated monkeys. Also noted: species or system cynomolgus monkeys. The note with it: one treated versus one untreated monkey, DMPS in water 24 hours plus one i.v. dose 90 min before sacrifice. As for the experimental part:
Two cynomolgus monkeys weighing about 7 kg were injected with 25 μCi of Ac-225 nanogenerators on HuM195 antibodies. One monkey received water and the other received DMPS in water for 24 hours and one dose of DMPS intravenously 90 min before sacrifice. At 24 hours the two monkeys were sacrificed and the kidneys examined for Bi-213 daughters. A 70% reduction in Bi-213 in the kidneys of the treated monkey was found (FIG. 7).

The conditions of data set [5]: cited from earlier work.
Data set [6] is described as follows: Competitive metal blockade with bismuth subnitrate: renal ^213Bi and ^221Fr activity after ^225Ac labeled HuM195 injection. It counts as in vivo, mice. As for the experimental part: as §1
Mice (5 per group) were injected i.p. with 200 μl of 1% bismuth subnitrate (BSN; Sigma, St. Louis, Mo.) suspension (100 mg/kg) or an equal volume of saline (controls) 4 hours before ^225Ac nanogenerator injection. These animals were sacrificed at 6 hours post-injection with the ^225Ac nanogenerator. Alternatively, mice were injected i.p. with 200 μl of 1% BSN suspension, 4 hours before and 8 and 20 hours after ^225Ac nanogenerator injection (n=5) or an equal volume of saline (n=5). These animals were sacrificed 24 hours after ^225Ac nanogenerator injection. The mean % ID/g of ^225Ac, ^221Fr and ^213Bi in blood and kidneys at sacrifice-time was calculated for each experimental group.

Sequence of CD33 antigen (P20138 18-364): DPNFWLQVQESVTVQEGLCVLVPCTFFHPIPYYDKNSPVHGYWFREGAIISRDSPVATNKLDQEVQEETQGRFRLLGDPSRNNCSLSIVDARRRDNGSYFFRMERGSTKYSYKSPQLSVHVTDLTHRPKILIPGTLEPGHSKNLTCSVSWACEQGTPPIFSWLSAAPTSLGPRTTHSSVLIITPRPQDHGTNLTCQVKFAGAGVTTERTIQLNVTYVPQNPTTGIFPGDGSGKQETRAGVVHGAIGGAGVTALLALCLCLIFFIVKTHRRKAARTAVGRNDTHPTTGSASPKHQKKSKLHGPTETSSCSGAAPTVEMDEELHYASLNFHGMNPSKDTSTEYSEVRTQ

Take “HuM195: humanized anti-CD33 IgG1 monoclonal antibody”: the affinity in the data set with CD33 antigen is 10^−9 to 10^−10 M.
For `NS(=O)(=O)c1cc(C(=O)O)c(NCc2ccco2)cc1Cl` [furosemide], in data set [1], the “24 hour renal ^213Bi activity” value was 18.3±0.6 % ID/g and the “24 hour renal ^221Fr activity” value is listed as 11.8±0.4 % ID/g.
As for `NS(=O)(=O)c1cc2c(cc1Cl)N=CNS2(=O)=O` [CTZ, chlorthiazide], in data set [1], the “24 hour renal ^213Bi activity” value is 18.6±1.6 % ID/g and the “24 hour renal ^221Fr activity” value is reported as 9.7±0.4 % ID/g.
As to `O=S(=O)(O)CC(S)CS` (stereo not shown) [DMPS, 2,3-dimercapto-1-propanesulfonic acid], the “mean blood ^213Bi activity” value in data set [2] (6 hours post-injection) worked out at 9.2±0.5 % ID/g; in data set [2] (72 hours post-injection), 5.5±0.1 % ID/g. In addition, the “renal ^213Bi activity” value is 38.6±5.5 % ID/g in data set [2] (6 hours post-injection); 21.7±2.1 % ID/g in data set [2] (72 hours post-injection); 16.7±2.7 % ID/g in data set [3] (high tumor burden + DMPS 1.2 mg/ml in drinking water, 24 hours post-injection). In addition, in data set [2], the “renal ^221Fr activity versus untreated controls” value was “not significantly different”. Moreover, the “relative effectiveness in reducing the renal ^213Bi activity” value in data set [2] (comparison between chelators) is “significantly more effective than DMSA”. Besides, the “kidney to femur activity ratio for ^213Bi” value in data set [3] (DMPS treated animals bearing the target tumor) is “significantly lower”. Also, the “femur ^213Bi activity” value in data set [3] (high tumor burden + DMPS, 24 hours post-injection) came out at 4.8±0.6 % ID/g. For the same molecule, the “reduction in Bi-213 in the kidneys” value in data set [4] is listed as 70%. The “extent of non-protein sulfhydryl formation in human plasma” value in data set [5] is 37%.
For the molecule `O=C(O)[C@@H](S)[C@@H](S)C(=O)O` [DMSA, meso-2,3-dimercaptosuccinic acid], the “mean blood ^213Bi activity” value in data set [2] (6 hours post-injection) amounted to 5.8±0.5 % ID/g; in data set [2] (72 hours post-injection), 4.8±0.6 % ID/g. Besides, the “renal ^213Bi activity” value in data set [2] (6 hours post-injection) is 66.0±1.9 % ID/g; in data set [2] (72 hours post-injection), 41.4±7.3 % ID/g. Moreover, in data set [2], the “renal ^221Fr activity versus untreated controls” value is reported as “not significantly different”. The “extent of non-protein sulfhydryl formation in human plasma” value in data set [5] is 8%.
In the case of `O=[N+]([O-])[O-].O=[N+]([O-])[O-].O=[N+]([O-])[O-].O=[N+]([O-])[O-].[Bi+3].[Bi+3].[Bi+3].[Bi+3].[Bi+3].[O-2].[OH-].[OH-].[OH-].[OH-].[OH-].[OH-].[OH-].[OH-].[OH-]` [BSN, bismuth subnitrate], the “renal ^213Bi activity” value in data set [6] (6 hours post-injection, BSN 100 mg/kg i.p. 4 hours before) came to 46.1±1.4 % ID/g; in data set [6] (24 hours post-injection, BSN i.p. 4 hours before and 8 and 20 hours after), 48.2±0.6 % ID/g. Moreover, the “renal ^221Fr activity” value in data set [6] (at either time-point (6 hours, 24 hours)) was “unaltered”.
